Measurements taken from patent US20120277177A1, “CRYSTALLINE PHASES OF 5,6-DICHLORO-2-(ISOPROPYLAMINO)-1-BETA-RIBOFURANOSYL-1H-BENZIMIDAZOLE” (priority 2010, published 2012).

Assay: Solid-state stability on storage in the well-plate under ambient temperature and relative humidity
Assay type: physicochemical
Conditions: for form change (desolvation / transformation) after storage: storage in the well-plate under ambient temperature and relative humidity for approximately 3 weeks
Excerpt: The invention relates to the anhydrate crystalline Form VIII, hydrates and solvates both in pure form and in admixture with other anhydrate forms, hydrates or solvates of the compound of formula (I).

SMILES	form change (desolvation / transformation) after storage	form change (transformation) after storage (approximately 4 weeks of storage under ambient conditions)
CC(C)Nc1nc2cc(Cl)c(Cl)cc2n1[C@H]1O[C@@H](CO)[C@H](O)[C@@H]1O [acetonitrile solvate, 5,6-dichloro-2-(isopropylamino)-1-(β-L-ribofuranosyl)-1H-benzimidazole]	completely desolvated and transformed to the anhydrate Form V	–
CC(C)Nc1nc2cc(Cl)c(Cl)cc2n1[C@H]1O[C@@H](CO)[C@H](O)[C@@H]1O [n-propyl acetate solvate, 5,6-dichloro-2-(isopropylamino)-1-(β-L-ribofuranosyl)-1H-benzimidazole]	partially desolvated and transformed to the anhydrate Form VI	–
CC(C)Nc1nc2cc(Cl)c(Cl)cc2n1[C@H]1O[C@@H](CO)[C@H](O)[C@@H]1O [t-butylmethyl ether solvate 2, 5,6-dichloro-2-(isopropylamino)-1-(β-L-ribofuranosyl)-1H-benzimidazole]	–	partially transformed into Form VI
